Data from ChEMBL document CHEMBL6092167, “Phosphorylation as an Effective Tool to Improve Stability and Reduce Toxicity of Antimicrobial Peptides” (J Med Chem, 2024).
The source made the active and inactive calls. No cut-off for these calls is given here. Non-standard residues stand in square brackets, D forms with d. Residues, ends and D or L forms follow the SMILES beside them. Bip = N[C@@H](Cc1ccc(-c2ccccc2)cc1)C(=O)O; pY = N[C@@H](Cc1ccc(OP(=O)(O)O)cc1)C(=O)O

Tests used:
Klebsiella pneumoniae [1] = assay: Bactericidal activity against Klebsiella pneumoniae ATCC 700603 at 2 times MIC measured upto 1440 mins by time kill assay; format: functional, organism-based
[2] = Toxicity in ip dosed BALB/c mouse assessed as hemorrhage in kidney at LD50 dose by H and E staining based assay; format: organism-based; settings: in vivo
[3] = Toxicity in ip dosed BALB/c mouse assessed as hemorrhage in lung at LD50 dose by H and E staining based assay; format: organism-based; settings: in vivo
Klebsiella pneumoniae [4] = assay: Antibacterial activity against Klebsiella pneumoniae ATCC 700603 infected in BALB/c mouse lung infection model assessed as alveolar dilation at 5 mg/kg, ip administered twice daily for 3 days and measured after 7 days; format: functional, organism-based; settings: time 10.0 day
Klebsiella pneumoniae [5] = assay: Antibacterial activity against Klebsiella pneumoniae ATCC 700603 infected in BALB/c mouse lung infection model assessed as improved alveolar aggregation at 5 mg/kg, ip administered twice daily for 3 days and measured after 7 days; format: functional, organism-based; settings: time 10.0 day
Staphylococcus aureus [6] = assay: Antibacterial activity against Staphylococcus aureus ATCC 25923 assessed as fold increase in MIC preincubated with serum for 6 hrs followed by 15 mins inactivation prior to bacteria addition and measured after 18 to 24 hrs; format: functional; settings: time 18-24 hrs
Klebsiella pneumoniae [7] = assay: Antibacterial activity against Klebsiella pneumoniae ATCC 700603 infected in BALB/c mouse lung infection model assessed as increased healing at 5 mg/kg, ip administered twice daily for 3 days and measured for 7 days; format: functional, organism-based; settings: time 10.0 day
Staphylococcus aureus [8] = assay: Antibacterial activity against Staphylococcus aureus ATCC 25923 infected in BALB/c mouse systemic infection model assessed as reduction in bacterial load in lung at 20 mg/kg, ip pre-infected for 2 hrs followed by compound addition and measured after 8 hrs postinfection; format: functional, organism-based; settings: time 6.0 hrs
[9] = Toxicity in BALB/c mouse assessed as mortality at 40 to 130 mg/kg, ip measured after 14 days; format: organism-based; settings: in vivo, 336 h, dose 40-130 mg/kg, time 14 day
Staphylococcus aureus [10] = assay: Antibacterial activity against Staphylococcus aureus ATCC 25923 infected in BALB/c mouse systemic infection model assessed as reduction in bacterial load in kidney at 20 mg/kg, ip pre-infected for 2 hrs followed by compound addition and measured after 8 hrs postinfection; format: functional, organism-based; settings: time 6.0 hrs
Staphylococcus aureus [11] = assay: Antibacterial activity against Staphylococcus aureus ATCC 25923 infected in BALB/c mouse systemic infection model assessed as reduction in bacterial load in liver at 20 mg/kg, ip pre-infected for 2 hrs followed by compound addition and measured after 8 hrs postinfection; format: functional, organism-based; settings: time 6.0 hrs
[12] = Toxicity in ip dosed BALB/c mouse assessed as inflammatory cell infiltration in kidney at LD50 dose by H and E staining based assay; format: organism-based; settings: in vivo
[13] = Toxicity in ip dosed BALB/c mouse assessed as liver edema at LD50 dose by H and E staining based assay; format: organism-based; settings: in vivo
Klebsiella pneumoniae [14] = assay: Antibacterial activity against Klebsiella pneumoniae ATCC 700603 infected in BALB/c mouse lung infection model assessed as increased healing at 5.31 mg/kg, ip administered twice daily for 3 days and measured for 7 days; format: functional, organism-based; settings: time 10.0 day
Staphylococcus aureus [15] = assay: Antibacterial activity against Staphylococcus aureus ATCC 25923 infected in BALB/c mouse systemic infection model assessed as reduction in bacterial load in kidney at 21.21 mg/kg, ip pre-infected for 2 hrs followed by compound addition and measured after 8 hrs postinfection; format: functional, organism-based; settings: time 6.0 hrs
Staphylococcus aureus [16] = assay: Antibacterial activity against Staphylococcus aureus ATCC 25923 assessed as fold increase in MIC in presence of Na+; format: functional
[17] = Toxicity in ip dosed BALB/c mouse assessed as effect on spleen at LD50 dose by H and E staining based assay; format: organism-based; settings: in vivo
Staphylococcus aureus [18] = assay: Antibacterial activity against Staphylococcus aureus ATCC 25923 in presence of KCl; format: functional, organism-based
Escherichia coli [19] = assay: Antibacterial activity against Escherichia coli ATCC 25922 preincubated with serum for 6 hrs followed by 15 mins inactivation prior to bacteria addition and measured after 18 to 24 hrs; format: functional, organism-based; settings: time 18-24 hrs
Staphylococcus aureus [20] = assay: Bactericidal activity against Staphylococcus aureus ATCC 25923 at 2 times MIC within 120 mins by time kill assay; format: functional, organism-based
Klebsiella pneumoniae [21] = assay: Bactericidal activity against Klebsiella pneumoniae ATCC 700603 at 2 times MIC within 60 mins by time kill assay; format: functional, organism-based
Escherichia coli [22] = assay: Antibacterial activity against Escherichia coli ATCC 25922 assessed as fold increase in MIC in presence of MgCl2; format: functional
[23] = Toxicity in ip dosed BALB/c mouse assessed as liver bleeding at LD50 dose by H and E staining based assay; format: organism-based; settings: in vivo
[24] = Toxicity in ip dosed BALB/c mouse assessed as effect on lung at LD50 dose by H and E staining based assay; format: organism-based; settings: in vivo
[25] = Toxicity in ip dosed BALB/c mouse assessed as kidney bleeding at LD50 dose by H and E staining based assay; format: organism-based; settings: in vivo
Staphylococcus aureus [26] = assay: Antibacterial activity against Staphylococcus aureus ATCC 25923 in presence of FeCl3; format: functional, organism-based

CC(C)C[C@H](NC(=O)[C@H](CC(C)C)NC(=O)[C@H](Cc1ccc(O)cc1)NC(=O)[C@H](CCCCN)NC(=O)[C@H](CC(C)C)NC(=O)[C@H](CCCNC(=N)N)NC(=O)[C@H](CCCCN)NC(=O)[C@H](Cc1ccc(-c2ccccc2)cc1)NC(=O)[C@H](CC(C)C)NC(=O)CN)C(N)=O (H-GL[Bip]KRLKYLL-NH2)
Activity (Klebsiella pneumoniae [1]): Active
Activity [2]: Toxic
Activity [3]: Toxic
Activity (Klebsiella pneumoniae [4]): Active
Activity (Klebsiella pneumoniae [5]): Active
fold change (FC) (Staphylococcus aureus [6]): 2
Activity (Klebsiella pneumoniae [7]): Active
Activity (Staphylococcus aureus [8]): Active
Activity [9]: Toxic
Activity (Staphylococcus aureus [10]): Active
Activity (Staphylococcus aureus [11]): Active
Activity [12]: Toxic

CC(C)C[C@H](NC(=O)[C@H](CC(C)C)NC(=O)[C@H](Cc1ccc(OP(=O)(O)O)cc1)NC(=O)[C@H](CCCCN)NC(=O)[C@H](CC(C)C)NC(=O)[C@H](CCCNC(=N)N)NC(=O)[C@H](CCCCN)NC(=O)[C@H](Cc1ccc(-c2ccccc2)cc1)NC(=O)[C@H](CC(C)C)NC(=O)CN)C(N)=O (H-GL[Bip]KRLK[pY]LL-NH2)
Activity [13]: Toxic
Activity (Klebsiella pneumoniae [14]): Active
Activity (Staphylococcus aureus [15]): Active
Activity (Staphylococcus aureus [16]): Active; Compound Showed Excellent Tolerance Towards Salt Environment
Activity [17]: Toxic
Activity (Staphylococcus aureus [18]): Active; Compound Showed Excellent Tolerance Towards Salt Environment
Activity (Escherichia coli [19]): Active; Antibacterial Activity Remained Unaffected
Activity (Staphylococcus aureus [20]): Active
Activity (Klebsiella pneumoniae [21]): Active
fold change (FC) (Escherichia coli [22]): 2
Activity [23]: Toxic
Activity [24]: Toxic
Activity [25]: Toxic
Activity (Staphylococcus aureus [26]): Active; Compound Showed Excellent Tolerance Towards Salt Environment
